# Measured values as given in patent US10538520B2, “Benzamide and nicotinamide compounds and methods of using same” (OncoTartis Inc., priority 2013, dated 2020).
# Assays:
# U-937 = assay: Cytotoxicity towards U-937 cell line; assay type: cell-based; details: Homo sapiens
# Protocol: (§1) In various embodiments, the compounds of the disclosure are those in which show IC50 values in cytotoxicity experiments towards cells lines MV4-11 and U937 of >20 μM, 10-20 μM, 5-10 μM, 1-5 μM, or <1 μM.
# (§2) The IC50 is divided into 5 categories: A<1 μM, B 1-5 μM, C 5-10 μM, D 10-20 μM, and E>20 μM.
# MV4-11 = assay: Cytotoxicity towards MV4-11 cell line; assay type: cell-based; details: Homo sapiens
# Protocol: as §1, §2
Compound,IC50 (U-937) [nM],IC50 (MV4-11) [nM]
O=C(NCCCn1ccnc1)c1ccc(Oc2ccccc2)c(C#Cc2ccccc2)c1 [TT-02741],< 1000,< 1000
Cn1nnnc1SCCNC(=O)c1ccc(-n2cccn2)c(C#Cc2ccccc2)c1 [TT-02928],5000 to 10000,10000 to 20000
O=C(NCCCc1cn[nH]c1)c1ccc(N2CCOC(CN3CCCCC3)C2)c(C#Cc2ccc(F)cc2)c1 (stereo not drawn) [TT-03669],< 1000,< 1000
Cc1ccc(C(=O)NCCCc2cn[nH]c2)cc1C#Cc1ccccc1 [TT-03248],< 1000,< 1000
O=C(NCCCc1cn[nH]c1)c1cnc(N2CC[S+]([O-])CC2)c(C#Cc2ccc(F)cc2)c1 [TT-03782],< 1000,< 1000
CC1(C)CCCN(c2ccc(C(=O)NCCCc3cn[nH]c3)cc2C#Cc2ccc(F)cc2)C1 [TT-03676],< 1000,< 1000
CC(=O)N1CCN(c2ccc(C(=O)NCCCc3cn[nH]c3)cc2C#Cc2ccc(F)cc2)CC1 [TT-03599],< 1000,< 1000
CC(C)(C)OC(=O)N1CCN(c2ccc(C(=O)NCCCc3cn[nH]c3)cc2C#Cc2ccc(F)cc2)CC1 [TT-03596],< 1000,< 1000
O=C(NCCCn1ccnc1)c1ccc(-c2ccncc2)c(C#Cc2ccccc2)c1 [TT-03256],< 1000,< 1000
O=C(c1ccc(-n2cccn2)c(C#Cc2ccccc2)c1)N1CCCC(Cn2ccnc2)C1 (stereo not drawn) [TT-02796],10000 to 20000,10000 to 20000
O=C(NCCCc1cn[nH]c1)c1ccc(N2CCCC2)c(C#Cc2ccccc2)c1 [TT-03230],< 1000,< 1000
O=C(NCc1cccnc1)c1ccc(-n2cccn2)c(C#Cc2cccnc2)c1 [TT-02944],10000 to 20000,> 20000
O=C(NCCCn1ccnc1)c1cc(C#Cc2ccccc2)c2nccn2c1 [TT-02760],10000 to 20000,10000 to 20000
Cc1cc(C)n(CCNC(=O)c2ccc(-n3cccn3)c(C#Cc3ccccc3)c2)n1 [TT-02927],5000 to 10000,10000 to 20000
COc1ccccc1C#Cc1cc(C(=O)NCCCc2cn[nH]c2)ccc1-n1cccn1 [TT-03330],< 1000,< 1000
O=C(NCCCc1cn[nH]c1)c1ccc(-n2cccn2)c(C#Cc2cccc(O)c2)c1 [TT-03311],< 1000,< 1000
Cc1cccc(C#Cc2cc(C(=O)NCCCn3ccnc3)ccc2-n2cccn2)c1 [TT-03327],< 1000,< 1000
NCCOCCOCCOCCN1CCN(c2ccc(C(=O)NCCCn3ccnc3)cc2C#Cc2ccc(F)cc2)CC1 [TT-03725],< 1000,< 1000
C#Cc1cc(C(=O)NCCCn2ccnc2)ccc1-n1cccn1 [TT-02752],10000 to 20000,5000 to 10000
O=C(NCCCc1cn[nH]c1)c1ccc(-n2cccn2)c(C#Cc2ccc(F)cn2)c1 [TT-03569],< 1000,< 1000
O=C(NCCCn1ccnc1)c1ccc(-n2cccn2)c(C#Cc2cccc(O)c2)c1 [TT-03312],< 1000,< 1000
O=C(NCCCn1ccnc1)c1ccc(-n2cccn2)c(C#Cc2cccnc2)c1 [TT-03264],< 1000,< 1000
Cc1nc(C)n(CCNC(=O)c2ccc(-n3cccn3)c(C#Cc3ccccc3)c2)n1 [TT-02805],< 1000,1000 to 5000

Compound,IC50 (U-937) [nM],IC50 (MV4-11) [nM]
O=C(NCCCn1ccnc1)c1ccc(-n2cccn2)c(C#Cc2ccccn2)c1 [TT-02695],< 1000,< 1000
CCc1nnc(NC(=O)c2ccc(-n3cccn3)c(C#Cc3ccccn3)c2)s1 [TT-02948],> 20000,> 20000
C[C@@H]1CN(c2ccc(C(=O)NCCCc3cn[nH]c3)cc2C#Cc2ccc(Cl)cc2)C[C@H](C)O1 [TT-03754],< 1000,< 1000
O=C(NCCCc1cn[nH]c1)c1ccc(N2CCOCC2)c(C#Cc2ccc(Cl)nc2)c1 [TT-03655],< 1000,< 1000
C[C@@H]1CN(c2ncc(C(=O)NC/C=C/c3cn[nH]c3)cc2C#Cc2ccc(Cl)cc2)C[C@H](C)O1 [TT-03752],< 1000,< 1000
CCc1nnc(NC(=O)c2ccc(-n3cccn3)c(C#Cc3cccnc3)c2)s1 [TT-02932],> 20000,> 20000
O=C(NCCCc1ccccn1)c1ccc(-n2cccn2)c(C#Cc2ccccc2)c1 [TT-02935],5000 to 10000,10000 to 20000
Cn1cnnc1C1CCN(C(=O)c2ccc(-n3cccn3)c(C#Cc3ccccc3)c2)C1 (stereo not drawn) [TT-02803],< 1000,> 20000
Cc1cc(SCCNC(=O)c2ccc(-n3cccn3)c(C#Cc3ccccc3)c2)[nH]n1 [TT-02691],5000 to 10000,10000 to 20000
NC(=O)c1cccc(C#Cc2cc(C(=O)NCCCc3cn[nH]c3)ccc2-n2cccn2)c1 [TT-03625],< 1000,< 1000
O=C(NC/C=C/c1cn[nH]c1)c1ccc(N2CCCC2)c(C#Cc2ccc(F)cc2)c1 [TT-03717],< 1000,< 1000
O=C(NCCCc1cn[nH]c1)c1ccc(-n2cccn2)c(C#Cc2cccnc2)c1 [TT-03303],< 1000,< 1000
NCc1ccc(C#Cc2cc(C(=O)NCCCc3cn[nH]c3)ccc2-n2cccn2)cc1 [TT-03334],< 1000,< 1000
O=C(NCCCc1cn[nH]c1)c1cnc(N2CCS(=O)(=O)CC2)c(C#Cc2ccc(F)cc2)c1 [TT-03783],< 1000,< 1000
O=C(NCCCn1ccnc1)c1ccc(-n2cccn2)c(C#Cc2cccc(C(F)(F)F)c2)c1 [TT-03331],< 1000,< 1000
O=C(NCCCCn1ccnc1)c1ccc(-n2cccn2)c(C#Cc2ccccc2)c1 [TT-02717],< 1000,< 1000
Cn1ccnc1CNC(=O)c1ccc(-n2cccn2)c(C#Cc2ccccc2)c1 [TT-02713],< 1000,> 20000
O=C(NCCCc1cn[nH]c1)c1ccc(N2CCCCC2)c(C#Cc2ccc(F)cc2)c1 [TT-03588],< 1000,< 1000
O=C(Nc1ccc(Cn2ccnc2)cc1)c1ccc(-n2cccn2)c(C#Cc2ccccc2)c1 [TT-02690],10000 to 20000,5000 to 10000
O=C(NCCCn1ccnc1)c1ccc(-n2cccn2)c(C#Cc2ccccc2C(F)(F)F)c1 [TT-02751],< 1000,< 1000
Cn1nnnc1SCCNC(=O)c1ccc(-n2cccn2)c(C#Cc2cccnc2)c1 [TT-02939],5000 to 10000,> 20000
O=C(NCc1cccnc1)c1ccc(-n2cccn2)c(C#Cc2ccccc2)c1 [TT-02684],< 1000,< 1000
O=C(NCCCn1ccnc1)c1ccc(-n2cccn2)c(C#Cc2ccccc2Cl)c1 [TT-02750],< 1000,< 1000

Compound,IC50 (U-937) [nM],IC50 (MV4-11) [nM]
O=C(NCCCc1cn[nH]c1)c1ccc(-n2cccn2)c(C#Cc2ccccn2)c1 [TT-03355],< 1000,< 1000
O=C(NCCCc1cn[nH]c1)c1ccc(-n2cccn2)c(C#Cc2cccc(F)c2)c1 [TT-03198],< 1000,< 1000
O=C(NCCCn1ccnc1)c1ccc(-n2cccn2)c(CCc2ccccc2)c1 [TT-03574],5000 to 10000,5000 to 10000
O=C(NCCCc1cn[nH]c1)c1ccc(N2CCNCC2)c(C#Cc2ccc(F)cc2)c1 [TT-03597],< 1000,< 1000
Cc1ccc(C#Cc2cc(C(=O)NCCCn3ccnc3)ccc2-n2cccn2)cc1 [TT-02745],< 1000,< 1000
O=C(NCCCc1cn[nH]c1)c1ccc(-c2ccncc2)c(C#Cc2ccccc2)c1 [TT-03246],< 1000,< 1000
Cc1cc(CN(C)C(=O)c2ccc(-n3cccn3)c(C#Cc3ccccc3)c2)no1 [TT-02801],1000 to 5000,10000 to 20000
O=C(NCCN1C(=O)CSC1=O)c1ccc(-n2cccn2)c(C#Cc2cccnc2)c1 [TT-02938],> 20000,> 20000
O=C1CC2CCC(CN1)N2c1ncc(C(=O)NCCCc2cn[nH]c2)cc1C#Cc1ccc(F)cc1 (stereo not drawn) [TT-03765],< 1000,< 1000
Cc1nn(-c2ccc(C(=O)NCCc3c[nH]cn3)cc2C#Cc2ccccc2)c(C)c1C [TT-02949],5000 to 10000,10000 to 20000
CC(CNC(=O)c1ccc(-n2cccn2)c(C#Cc2ccccc2)c1)n1cncn1 (stereo not drawn) [TT-02930],> 20000,> 20000
Cc1ccc(C(=O)NCCCn2ccnc2)cc1C#Cc1ccccc1 [TT-03196],< 1000,< 1000
Cc1nccn1CCCNC(=O)c1ccc(-n2cccn2)c(C#Cc2ccccc2)c1 [TT-02689],1000 to 5000,1000 to 5000
Cn1ccnc1C(C)(O)CC1CCCN1C(=O)c1ccc(-n2cccn2)c(C#Cc2ccccc2)c1 (stereo not drawn) [TT-02793],5000 to 10000,> 20000
O=C(NCCCn1ccnc1)c1ccc(-n2cccn2)cc1 [TT-03071],1000 to 5000,1000 to 5000
C[C@@H]1CN(c2ncc(C(=O)NCCCc3cn[nH]c3)cc2C#Cc2ccc(F)cc2)C[C@H](C)O1 [TT-03750],< 1000,< 1000
O=C(NCCCc1cn[nH]c1)c1ccc(-n2cccn2)c(C#Cc2ccccc2F)c1 [TT-03211],< 1000,< 1000
O=C(NCCCn1ccnc1)c1ccc(-n2cccn2)c(C#Cc2ccc(C(F)(F)F)cc2)c1 [TT-02747],5000 to 10000,10000 to 20000
O=C(NCCc1cnccn1)c1ccc(-n2cccn2)c(C#Cc2ccccc2)c1 [TT-02943],1000 to 5000,10000 to 20000
O=C(NCCCn1ccnc1)c1ccc(-n2cccn2)c(C#Cc2ccncc2)c1 [TT-03305],< 1000,< 1000
Cc1nn(-c2ccc(C(=O)NCCCc3cn[nH]c3)cc2C#Cc2ccccc2)c(C)c1C [TT-03626],< 1000,< 1000
COc1ccc(C#Cc2cc(C(=O)NCCCc3cn[nH]c3)ccc2N2CCOCC2)cn1 [TT-03720],< 1000,< 1000
O=C(NCCCc1cn[nH]c1)c1ccc(N2CCC3(CCCCC3)C2)c(C#Cc2ccc(F)cc2)c1 [TT-03590],< 1000,< 1000
